In patent US9527830B2 (Merck Sharp & Dohme Corp., priority 2011, dated 2016):
pIC50: −log10 of the molar value.

Molecular target: T1, hROMK1 (Kir1.1) (Homo sapiens, UniProt P48048)
T1 construct: expressed in transfected cells
T1 sequence (P48048 1-391): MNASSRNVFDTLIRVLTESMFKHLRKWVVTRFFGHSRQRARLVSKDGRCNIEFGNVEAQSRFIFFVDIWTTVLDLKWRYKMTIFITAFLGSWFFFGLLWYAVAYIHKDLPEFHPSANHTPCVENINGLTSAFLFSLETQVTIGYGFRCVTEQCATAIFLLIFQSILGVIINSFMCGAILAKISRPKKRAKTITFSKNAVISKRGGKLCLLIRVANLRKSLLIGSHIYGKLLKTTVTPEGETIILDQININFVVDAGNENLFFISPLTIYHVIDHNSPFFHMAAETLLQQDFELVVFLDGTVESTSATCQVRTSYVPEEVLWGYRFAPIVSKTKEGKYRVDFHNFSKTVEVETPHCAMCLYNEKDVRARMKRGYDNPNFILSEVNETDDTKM
Assay: ^86Rb^+ Efflux Assay
Assay type: cell-based
Conditions: CHO-DHFR- cells stably expressing hROMK1; potency ranges
Method: (§1) Several assays may be used to measure functional inhibition of the ROMK channel by compounds of the instant invention. One primary assay that can be used is a functional ^86Rb^+ efflux assay that measures the ability of ROMK to permeate ^86Rb^+, in the absence or presence of test compound. Under control conditions, cells loaded with ^86Rb^+ and incubated in Rb^+-free medium display a time-dependent efflux of the isotope, the rate of which depends on number of functional channels. When cells are incubated in the presence of a channel inhibitor, efflux of ^86Rb^+ is prevented in a concentration-dependent manner, and IC50 values of inhibition by compounds can be accurately determined. This assay has been established with cell lines expressing either human, rat or dog ROMK channels, and can operate in 96- or 384-well format. Importantly, the human, rat, and dog ^86Rb^+ efflux assays can be carried out in the presence of up to 100% serum allowing, therefore, an accurate estimation of the effect of protein binding on the inhibitory activity of compounds of interest. Another ROMK functional assay makes use of the ability of thallium to permeate through open ROMK channels and increase the fluorescence of a dye previously loaded into the cells. Under control conditions, cells loaded with dye and exposed to thallium-containing medium display a time-dependent increase in fluorescence, the rate of which depends on number of functional channels. When cells are incubated in the presence of a channel inhibitor, the increase in fluorescence is attenuated in a concentration-dependent manner, and IC50 values of inhibition by compounds can be accurately determined. This assay has been established with cell lines expressing either human, or rat ROMK channels, and operates in 384-well format. Another assay for evaluation of the compounds of the instant invention and for evaluation of mechanism of action of compounds of Formula I relies on the measurement of the electrical current that is generated as potassium permeates through the channel. For these electrophysiological experiments, three different platforms, IonWorks, QPatch, or manual patch clamp, are used, depending on the experimental protocol under consideration. IonWorks operates in a 384-well format and allows accurate determination of IC50 values for inhibitors.
CHO-DHFR-cells stably expressing hROMK1 (Kir1.1) were grown at 37° C. in a 10% CO2 humidified incubator in Iscove's Modified Dulbecco's Medium (Gibco 12440) supplemented with HT Supplement, Penicillin/Streptomycin/Glutamine, G418 (500 μg/ml) and 10% FBS. Cells were seeded in Sterile and Tissue Culture Treated Packard CulturPlate White Opaque Microplates at a concentration of 5.0E5-7.0E5 cells/ml—PerkinElmer 6005680 (96-well); Corning 3707 (384 well) in complete media containing 1.5 μCi/ml Rubidium-86. Cells were incubated in 37° C.-10% CO2 incubator overnight. On the day of the experiment, the media was removed and cells washed with low K assay buffer. ^86Rb^+ efflux was initiated after addition of assay buffer±test compound followed by 35 min incubation at room temperature. ROMK-sensitive component of efflux was defined in the presence of 10 mM BaCl2. Assay buffer was removed and transferred to a plate and cells were solubilized in the presence of SDS. Radioactivity associated with assay and cell plate was determined.
• 1. Removed cell media and washed cells with low K assay buffer (126.9 mM NaCl, 4.6 mM KCl, 2 mM CaCl2, 1 mM MgCl2, 10 mM Hepes/NaOH; pH 7.4) • 200 μl for 96-well plate; 70 μl for 384-well plate • 2. Added assay buffer (121.5 mM NaCl, 10 mM KCl, 2 mM CaCl2, 1 mM MgCl2, 10 mM Hepes/NaOH; pH 7.4)±test compound to cells • 100 μl for 96-well plate; 50 μl for 384-well plate • 3. Incubated at ambient temperature (22-24° C.) for 35 min • 4.

How did the pIC50 turn out when O=C1OCc2cc(SC3CCN(CC(O)c4ccc5c(c4)COC5=O)CC3)ccc21 (stereo not drawn) [Example 85, 5-({1-[2-hydroxy-2-(1-oxo-1,3-dihydro-2-benzofuran-5-yl)ethyl]piperidin-4-yl}sulfanyl)-2-benzofuran-1(3H)-one] was run?
The pIC50 was no less than 6.30.

How did the pIC50 turn out when Cc1c(C(O)CC2CCN(C[C@H](O)c3ccc4c(c3C)COC4=O)CC2)ccc2c1COC2=O (stereo partly drawn) [Example 86, 5-[(1R)-1-Hydroxy-2-{4-[2-hydroxy-2-(4-methyl-1-oxo-1,3-dihydro-2-benzofuran-5-yl)ethyl]piperidin-1-yl}ethyl]-4-methyl-2-benzofuran-1(3H)-one] was run?
The pIC50 was no less than 6.70.

How did the pIC50 turn out when Cc1c(CC(O)C2CCN(C[C@H](O)c3ccc4c(c3C)COC4=O)CC2)ccc2c1COC2=O (stereo partly drawn) [Example 87, 5-[(1R)-1-Hydroxy-2-{4-[1-hydroxy-2-(4-methyl-1-oxo-1,3-dihydro-2-benzofuran-5-yl)ethyl]piperidin-1-yl}ethyl]-4-methyl-2-benzofuran-1(3H)-one] was run?
Its pIC50 is no less than 6.70.

Molecular target: T2, hROMK (hKir1.1) (Homo sapiens, UniProt P48048)
T2 construct: expressed in transfected cells
T2 sequence (P48048 1-391): T1 sequence (P48048 1-391)
Assay: Thallium Flux Assay (FluxOR, FLIPR-Tetra)
Assay type: cell-based
Conditions: HEK293 cells stably expressing hROMK; potency ranges
Method: as §1
HEK293 cells stably expressing hROMK (hKir1.1) were grown at 37° C. in a 10% CO2 humidified incubator in complete growth media: Dulbecco's Modified Eagle Medium supplemented with non-essential amino acids, Penicillin/Streptomycin/Glutamine, G418 and FBS. At >80% confluency, media was aspirated from the flask and rinsed with 10 ml Calcium/Magnesium-free PBS. 5 ml of 1× trypsin (prepared in Ca/Mg Free PBS) was added to T-225 flask and flask returned to 37° C./CO2 incubator for 2-3 minutes. To dislodge the cell, the side of the flask was gently banged by hand. Cells were completely triturated and then transferred to 25 ml complete media, and centrifuged at 1,500 rpm for 6 min followed by resuspension in complete growth media and cell concentration determined. For typical re-seeding, 4E6 cells/T-225 flask attained >80% confluency in 4 days. Under ideal growth conditions and appropriate tissue culture practices, this cell line was stable for 40-45 passages.
FluxOR™ Kit Components (Invitrogen F10017)
• FluxOR™ Reagent (Component A) • FluxOR™ Assay Buffer (Component B)—10× Concentrate • PowerLoad™ Concentrate (Component C)—100× Concentrate • Probenecid (Component D)—Lyophilized sample was kept at −20° C. Water soluble, 100× after solubilization in 1 ml water. Store at 4° C. • FluxOR™ Chloride-free Buffer (Component E)—5× Concentrate • Potassium sulfate (K2SO4) Concentrate (Component F)—125 mM in water. Stored at 4° C. • Thallium sulfate (Tl2SO4) Concentrate (Component G)—50 mM in water. […]

Cc1c(C(O)CC2CCN(C(=O)Cc3ccc(-n4cnnn4)nc3)CC2)ccc2c1COC2=O (racemic) [Example 110, 5-[1-Hydroxy-2-(1-{[6-(1H-tetrazol-1-yl)pyridin-3-yl]acetyl}piperidin-4-yl)ethyl]-4-methyl-2-benzofuran-1(3H)-one] was tested. Which pIC50 did it give?
Its pIC50 is no less than 7.00.

How did the pIC50 turn out when O=C1OCc2cc(SC3CCN(CC(O)c4ccc5c(c4)COC5=O)CC3)ccc21 (stereo not drawn) [Example 85, 5-({1-[2-hydroxy-2-(1-oxo-1,3-dihydro-2-benzofuran-5-yl)ethyl]piperidin-4-yl}sulfanyl)-2-benzofuran-1(3H)-one] was run?
Its pIC50 is no less than 6.70.

With Cc1c(C(O)CC2CCN(C[C@H](O)c3ccc4c(c3C)COC4=O)CC2)ccc2c1COC2=O (stereo partly drawn) [Example 86, 5-[(1R)-1-Hydroxy-2-{4-[2-hydroxy-2-(4-methyl-1-oxo-1,3-dihydro-2-benzofuran-5-yl)ethyl]piperidin-1-yl}ethyl]-4-methyl-2-benzofuran-1(3H)-one] as the molecule, how does the pIC50 read?
The pIC50 was no less than 7.00.

How did the pIC50 turn out when Cc1c(CC(O)C2CCN(C[C@H](O)c3ccc4c(c3C)COC4=O)CC2)ccc2c1COC2=O (stereo partly drawn) [Example 87, 5-[(1R)-1-Hydroxy-2-{4-[1-hydroxy-2-(4-methyl-1-oxo-1,3-dihydro-2-benzofuran-5-yl)ethyl]piperidin-1-yl}ethyl]-4-methyl-2-benzofuran-1(3H)-one] was run?
Its pIC50 is no less than 7.00.

Cc1c([C@@H](O)CN2CCC(CN(C)c3ccc(C#N)cn3)CC2)ccc2c1COC2=O [Example 93, 6-[({1-[(2R)-2-Hydroxy-2-(4-methyl-1-oxo-1,3-dihydro-2-benzofuran-5-yl)ethyl]piperidin-4-yl}methyl)(methyl)amino]pyridine-3-carbonitrile] was tested. Which pIC50 did it give?
The pIC50 was no less than 6.70.

With Cc1c(SCC2CCN(C[C@H](O)c3ccc4c(c3C)COC4=O)CC2)ccc2c1COC2=O [Example 94, 5-[({1-[(2R)-2-Hydroxy-2-(4-methyl-1-oxo-1,3-dihydro-2-benzofuran-5-yl)ethyl]piperidin-4-yl}methyl)sulfanyl]-4-methyl-2-benzofuran-1(3H)-one] as the molecule, how does the pIC50 read?
Its pIC50 is no less than 7.00.

With Cc1c(OCC2CCN(C[C@H](O)c3ccc4c(c3C)COC4=O)CC2)ccc2c1COC2=O [Example 95, 5-({1-[(2R)-2-Hydroxy-2-(4-methyl-1-oxo-1,3-dihydro-2-benzofuran-5-yl)ethyl]piperidin-4-yl}methoxy)-4-methyl-2-benzofuran-1(3H)-one] as the molecule, how does the pIC50 read?
The pIC50 was no less than 7.00.

With Cc1c([C@@H](O)CN2CCC(C[S+]([O-])c3ccc4c(c3C)COC4=O)CC2)ccc2c1COC2=O (stereo partly drawn) [Example 96, 5-[({1-[(2R)-2-hydroxy-2-(4-methyl-1-oxo-1,3-dihydro-2-benzofuran-5-yl)ethyl]piperidin-4-yl}methyl)sulfinyl]-4-methyl-2-benzofuran-1(3H)-one] as the molecule, how does the pIC50 read?
Its pIC50 is no less than 7.00.

Cc1c([C@@H](O)CN2CCC(CS(=O)(=O)c3ccc4c(c3C)COC4=O)CC2)ccc2c1COC2=O [Example 99] was tested. Which pIC50 did it give?
Its pIC50 is no less than 7.00.

Cc1c([C@@H](O)CN2CCC(CSc3ccc(C#N)cn3)CC2)ccc2c1COC2=O [Example 100, 6-[({1-[(2R)-2-Hydroxy-2-(4-methyl-1-oxo-1,3-dihydro-2-benzofuran-5-yl)ethyl]piperidin-4-yl}methyl)sulfanyl]pyridine-3-carbonitrile] was tested. Which pIC50 did it give?
The pIC50 was no less than 7.00.

Cc1c([C@@H](O)CN2CCC(F)(COc3ccc(C#N)cn3)CC2)ccc2c1COC2=O [Example 102, 6-({4-Fluoro-1-[(2R)-2-hydroxy-2-(4-methyl-1-oxo-1,3-dihydro-2-benzofuran-5-yl)ethyl]piperidin-4-yl}methoxy)pyridine-3-carbonitrile] was tested. Which pIC50 did it give?
The pIC50 was no less than 6.70.

Cc1c([C@@H](O)CN2CCC(CSc3ccc4c(c3)CCOC4=O)CC2)ccc2c1COC2=O [Example 103, 6-[({1-[(2R)-2-Hydroxy-2-(4-methyl-1-oxo-1,3-dihydro-2-benzofuran-5-yl)ethyl]piperidin-4-yl}methyl)sulfanyl]-3,4-dihydro-1H-isochromen-1-one] was tested. Which pIC50 did it give?
The pIC50 was no less than 6.70.

With Cc1c([C@@H](O)CN2CCC(C[S+]([O-])c3ccc4c(c3)CCOC4=O)CC2)ccc2c1COC2=O (stereo partly drawn) [Example 104, 6-[({1-[(2R)-2-Hydroxy-2-(4-methyl-1-oxo-1,3-dihydro-2-benzofuran-5-yl)ethyl]piperidin-4-yl}methyl)sulfinyl]-3,4-dihydro-1H-isochromen-1-one] as the molecule, how does the pIC50 read?
The pIC50 was no less than 7.00.

Cc1c([C@@H](O)CN2CC3C(COc4ccc(C#N)cn4)C3C2)ccc2c1COC2=O (stereo partly drawn) [Example 106, 6-({3-[(2R)-2-Hydroxy-2-(4-methyl-1-oxo-1,3-dihydro-2-benzofuran-5-yl)ethyl]-3-azabicyclo[3.1.0]hex-6-yl}methoxy)pyridine-3-carbonitrile] was tested. Which pIC50 did it give?
Its pIC50 is no less than 7.00.

Cc1c([C@@H](O)CN2CCC(C)(COc3ccc(C#N)cn3)CC2)ccc2c1COC2=O [Example 107] was tested. Which pIC50 did it give?
The pIC50 was no less than 7.00.

With Cc1c([C@@H](O)CN2CCC(CS(=O)(=O)c3ccc4c(c3)CCOC4=O)CC2)ccc2c1COC2=O [Example 109, 6-[({1-[(2R)-2-Hydroxy-2-(4-methyl-1-oxo-1,3-dihydro-2-benzofuran-5-yl)ethyl]piperidin-4-yl}methyl)sulfonyl]-3,4-dihydro-1H-isochromen-1-one] as the molecule, how does the pIC50 read?
Its pIC50 is no less than 7.00.

Cc1c([C@@H](O)CN2CCC(Nc3ccc(C#N)cn3)CC2)ccc2c1COC2=O [Example 111, (R)-6-(1-(2-Hydroxy-2-(4-methyl-1-oxo-1,3-dihydroisobenzofuran-5-yl)ethyl)piperidin-4-ylamino)nicotinonitrile] was tested. Which pIC50 did it give?
Its pIC50 is no less than 7.00.

With Cc1c([C@@H](O)CN2[C@@H]3CC[C@H]2CC(Nc2ccc(C#N)cn2)C3)ccc2c1COC2=O (stereo partly drawn) [Example 112, 6-((1R,5S)-8-((R)-2-Hydroxy-2-(4-methyl-1-oxo-1,3-dihydroisobenzofuran-5-yl)ethyl)-8-azabicyclo[3.2.1]octan-3-ylamino)nicotinonitrile] as the molecule, how does the pIC50 read?
Its pIC50 is no less than 7.00.
